Experimental data taken from US9115143B2, “Substituted indole derivatives as gamma secretase modulators” (Janssen Pharmaceuticals, Inc., priority 2011, dated 2015).

What was measured:
[1] = tested on: Aβ42; assay: Screening for γ-secretase-modulating activity: Aβ42 in supernatant of SKNBE2 cells carrying hAPP 695 wild type (Alphalisa); format: cell-based, human; settings: SKNBE2 human neuroblastoma cells carrying hAPP 695 wild type; overnight incubation; Alphalisa on supernatant
Procedure: (§1) Pharmacology A) Screening of the Compounds of the Invention for γ-Secretase-Modulating Activity
(§2) Screening was carried out using SKNBE2 human neuroblastoma cells carrying the hAPP 695—wild type, grown in Dulbecco's Modified Eagle's Medium/Nutrient mixture F-12 (DMEM/NUT-mix F-12) (HAM) provided by Invitrogen (cat no. 10371-029) containing 5% Serum/Fe supplemented with 1% non-essential amino acids, 1-glutamine 2 mM, Hepes 15 mM, penicillin 50 U/mL (units/mL) en streptomycin 50 μg/mL. Cells were grown to near confluency.
(§3) The screening was performed using a modification of the assay as described in Citron et al (1997) Nature Medicine 3: 67. Briefly, cells were plated in a 384-well plate at 10^4 cells/well in Ultraculture (Lonza, BE12-725F) supplemented with 1% glutamine (Invitrogen, 25030-024), 1% non-essential amino acid (NEAA), penicillin 50 U/mL en streptomycin 50 μg/mL in the presence of test compound at different test concentrations. The cell/compound mixture was incubated overnight at 37° C., 5% CO2. The next day the media were assayed by two sandwich immuno-assays, for Aβ42 and Aβtotal.
(§4) Aβtotal and Aβ42 concentrations were quantified in the cell supernatant using the Aphalisa technology (Perkin Elmer). Alphalisa is a sandwich assay using biotinylated antibody attached to streptavidin coated donorbeads and antibody conjugated to acceptor beads. In the presence of antigen, the beads come into close proximity. The excitation of the donor beads provokes the release of singlet oxygen molecules that trigger a cascade of energy transfer in the acceptor beads, resulting in light emission. To quantify the amount of Aβ42 in the cell supernatant, monoclonal antibody specific to the C-terminus of Aβ42 (JRF/cAβ42/26) was coupled to the receptor beads and biotinylated antibody specific to the N-terminus of Aβ (JRF/AβN/25) was used to react with the donor beads. To quantify the amount of Aβ total in the cell supernatant, monoclonal antibody specific to the N-terminus of Aβ (JRF/AβN/25) was coupled to the receptor beads and biotinylated antibody specific to the mid region of Aβ (biotinylated 4G8) was used to react with the donor beads.
(§5) To obtain the values reported in Table 3, the data are calculated as percentage of the maximum amount of amyloid Beta 42 measured in the absence of the test compound. The sigmoidal dose response curves were analyzed using nonlinear regression analysis with percentage of the control plotted against the log concentration of the compound. A 4-parameter equation was used to determine the IC50.

[2] = tested on: Aβtotal; assay: Screening for γ-secretase-modulating activity: Aβtotal in supernatant of SKNBE2 cells carrying hAPP 695 wild type (Alphalisa); format: cell-based, human; settings: overnight incubation, Alphalisa on supernatant
Procedure: as §1, §2, §3, §4, §5

[3] = SKNBE2 human neuroblastoma cells carrying hAPP 695 wild type
[4] = Homo sapiens, SKNBE2, SKNBE2 human neuroblastoma cells carrying hAPP 695 wild type

IC50 [1] | IC50 [2, 3] | IC50 [2, 4] | Structure (SMILES)
0.372 µM | > 10 µM |  | COc1c(C#N)ccc2[nH]c(-c3cn4c(n3)C(c3ccccc3C(F)(F)F)OCC4)cc12 (single isomer, unassigned) [Compound 45, 2-[5,6-dihydro-8-[2-(trifluoromethyl)phenyl]-8H-imidazo[2,1-c][1,4]oxazin-2-yl]-4-methoxy-1H-indole-5-carbonitrile]
0.603 µM | > 10 µM |  | COc1c(C#N)ccc2[nH]c(-c3nc4n(n3)CCOC4c3ccccc3C(F)(F)F)cc12 (single isomer, unassigned) [Compound 57, 2-[5,6-dihydro-8-[2-(trifluoromethyl)phenyl]-8H-[1,2,4]triazolo[5,1-c][1,4]oxazin-2-yl]-4-methoxy-1H-indole-5-carbonitrile]
0.141 µM |  | > 10 µM | Cc1cn(-c2ccc3[nH]c(-c4nc5n(n4)CCCC5c4ccc(F)cc4C)cc3c2)cn1 (single isomer, unassigned) [Compound 76, 8-(4-fluoro-2-methylphenyl)-5,6,7,8-tetrahydro-2-[5-(4-methyl-1H-imidazol-1-yl)-1H-indol-2-yl]-[1,2,4]triazolo[1,5-a]pyridine]
0.03 µM |  | > 10 µM | COc1c(-n2cnc(C)c2)ccc2[nH]c(-c3cn4c(n3)C(c3ccc(F)cc3C)CCC4)cc12 (single isomer, unassigned) [Compound 78, 8-(4-fluoro-2-methylphenyl)-5,6,7,8-tetrahydro-2-[4-methoxy-5-(4-methyl-1H-imidazol-1-yl)-1H-indol-2-yl]-imidazo[1,2-a]pyridine]
0.186 µM | > 10 µM |  | COc1c(-n2cnc(C)c2)ccc2[nH]c(-c3cn4c(n3)C(c3ccc(F)cc3C)CCC4)cc12 (single isomer, unassigned) [Compound 79, 8-(4-fluoro-2-methylphenyl)-5,6,7,8-tetrahydro-2-[4-methoxy-5-(4-methyl-1H-imidazol-1-yl)-1H-indol-2-yl]-imidazo[1,2-a]pyridine]
0.468 µM |  | > 10 µM | COc1ccccc1C1CCCn2nc(-c3cc4cc(-n5cnc(C)c5)ccc4[nH]3)nc21 (single isomer, unassigned) [Compound 80, 5,6,7,8-tetrahydro-8-(2-methoxyphenyl)-2-[5-(4-methyl-1H-imidazol-1-yl)-1H-indol-2-yl]-[1,2,4]triazolo[1,5-a]pyridine]
0.074 µM | > 10 µM |  | COc1ccccc1C1CCCn2nc(-c3cc4cc(-n5cnc(C)c5)ccc4[nH]3)nc21 (single isomer, unassigned) [Compound 81, 5,6,7,8-tetrahydro-8-(2-methoxyphenyl)-2-[5-(4-methyl-1H-imidazol-1-yl)-1H-indol-2-yl]-[1,2,4]triazolo[1,5-a]pyridine]
0.014 µM | 2.34 µM |  | COc1c(-n2cnc(C)c2)ccc2[nH]c(-c3nc4n(n3)CCCC4c3ccc(F)cc3C)cc12 (single isomer, unassigned) [Compound 83, 8-(4-fluoro-2-methylphenyl)-5,6,7,8-tetrahydro-2-[4-methoxy-5-(4-methyl-1H-imidazol-1-yl)-1H-indol-2-yl]-[1,2,4]triazolo[1,5-a]pyridine]
0.048 µM | 5.37 µM |  | COc1c(-n2cnc(C)c2)ccc2[nH]c(-c3nc4n(n3)CCCC4c3ccc(F)cc3C)cc12 (single isomer, unassigned) [Compound 84, 8-(4-fluoro-2-methylphenyl)-5,6,7,8-tetrahydro-2-[4-methoxy-5-(4-methyl-1H-imidazol-1-yl)-1H-indol-2-yl]-[1,2,4]triazolo[1,5-a]pyridine]
0.447 µM | > 10 µM |  | Cc1cn(-c2cnc3[nH]c(-c4nc5n(n4)CCCC5c4ccc(F)cc4C)cc3c2)cn1 (single isomer, unassigned) [Compound 87, 8-(4-fluoro-2-methylphenyl)-5,6,7,8-tetrahydro-2-[5-(4-methyl-1H-imidazol-1-yl)-1H-pyrrolo[2,3-b]pyridin-2-yl]-[1,2,4]triazolo[1,5-a]pyridine]
0.065 µM |  | > 10 µM | Cc1cn(-c2cnc3[nH]c(-c4nc5n(n4)CCCC5c4ccc(F)cc4C)cc3c2)cn1 (single isomer, unassigned) [Compound 88, 8-(4-fluoro-2-methylphenyl)-5,6,7,8-tetrahydro-2-[5-(4-methyl-1H-imidazol-1-yl)-1H-pyrrolo[2,3-b]pyridin-2-yl]-[1,2,4]triazolo[1,5-a]pyridine]
2.19 µM |  | > 10 µM | Cc1cc(F)ccc1C1OCCn2cc(-c3cc4nc(-c5cnn(C)c5)ccc4[nH]3)nc21 (single isomer, unassigned) [Compound 101, 8-(4-fluoro-2-methylphenyl)-5,6-dihydro-2-[5-(1-methyl-1H-pyrazol-4-yl)-1H-pyrrolo[3,2-b]pyridin-2-yl]-8H-imidazo[2,1-c][1,4]oxazine]
0.021 µM |  | > 10 µM | COc1c(-n2cnc(C)c2)ccc2[nH]c(-c3cn4c(n3)C(c3ccc(F)cc3C)OCC4)cc12 (single isomer, unassigned) [Compound 112, 8-(4-fluoro-2-methylphenyl)-5,6-dihydro-2-[4-methoxy-5-(4-methyl-1H-imidazol-1-yl)-1H-indol-2-yl]-8H-imidazo[2,1-c][1,4]oxazine]
0.151 µM | > 10 µM |  | COc1c(-n2cnc(C)c2)ccc2[nH]c(-c3cn4c(n3)C(c3ccc(F)cc3C)OCC4)cc12 (single isomer, unassigned) [Compound 113, 8-(4-fluoro-2-methylphenyl)-5,6-dihydro-2-[4-methoxy-5-(4-methyl-1H-imidazol-1-yl)-1H-indol-2-yl]-8H-imidazo[2,1-c][1,4]oxazine]
3.8 µM | > 10 µM |  | COc1c(C#N)ccc2[nH]c(-c3nc4n(n3)CCOC4c3c(F)cccc3Cl)cc12 (single isomer, unassigned) [Compound 118, 2-[8-(2-chloro-6-fluorophenyl)-5,6-dihydro-8H-[1,2,4]triazolo[5,1-c][1,4]oxazin-2-yl]-4-methoxy-1H-indole-5-carbonitrile]
2.82 µM | > 10 µM |  | COc1c(C#N)ccc2[nH]c(-c3cn4c(n3)C(c3c(F)cccc3Cl)OCC4)cc12 (single isomer, unassigned) [Compound 123, 2-[8-(2-chloro-6-fluorophenyl)-5,6-dihydro-8H-imidazo[2,1-c][1,4]oxazin-2-yl]-4-methoxy-1H-indole-5-carbonitrile]
0.49 µM | > 10 µM |  | COc1c(C#N)ccc2[nH]c(-c3cn4c(n3)C(c3cccc(F)c3C(F)(F)F)OCC4)cc12 (single isomer, unassigned) [Compound 132, 2-[8-[3-fluoro-2-(trifluoromethyl)phenyl]-5,6-dihydro-8H-imidazo[2,1-c][1,4]oxazin-2-yl]-4-methoxy-1H-indole-5-carbonitrile]
1 µM | > 10 µM |  | COc1c(C#N)ccc2[nH]c(-c3nc4n(n3)CCOC4c3cccc(F)c3C(F)(F)F)cc12 (single isomer, unassigned) [Compound 134, 2-[8-[3-fluoro-2-(trifluoromethyl)phenyl]-5,6-dihydro-8H-[1,2,4]triazolo[5,1-c][1,4]oxazin-2-yl]-4-methoxy-1H-indole-5-carbonitrile]
0.036 µM |  | > 10 µM | COc1c(C#N)ccc2[nH]c(-c3cn4c(n3)C(c3cccc(C)c3F)OCC4)cc12 (single isomer, unassigned) [Compound 135, 2-[8-(2-fluoro-3-methylphenyl)-5,6-dihydro-8H-imidazo[2,1-c][1,4]oxazin-2-yl]-4-methoxy-1H-indole-5-carbonitrile]
1.26 µM | > 10 µM |  | COc1c(C#N)ccc2[nH]c(-c3cn4c(n3)C(c3cccc(C)c3F)OCC4)cc12 (single isomer, unassigned) [Compound 136, 2-[8-(2-fluoro-3-methylphenyl)-5,6-dihydro-8H-imidazo[2,1-c][1,4]oxazin-2-yl]-4-methoxy-1H-indole-5-carbonitrile]
1.86 µM | > 10 µM |  | COc1c(C#N)ccc2[nH]c(-c3nc4n(n3)CCOC4c3cccc(C)c3F)cc12 (single isomer, unassigned) [Compound 149, 2-[8-(2-fluoro-3-methylphenyl)-5,6-dihydro-8H-[1,2,4]triazolo[5,1-c][1,4]oxazin-2-yl]-4-methoxy-1H-indole-5-carbonitrile]
